Key:
Assay type in all cases: functional
RPMI-8226 = experiment: Cytotoxicity against human RPMI8226 cells assessed as cell growth at 100 uM incubated for 48 hrs by sulforhodamine B assay relative to control; conditions: RPMI-8226, 48 h, read-out: Activity
Malme-3M [1] = experiment: Cytotoxicity against human MALME-3M cells assessed as cell growth at 0.1 uM incubated for 48 hrs by sulforhodamine B assay relative to control; conditions: read-out: Activity
MDA-MB-468 = experiment: Cytotoxicity against human MDA-MB-468 cells assessed as cell growth at 1 uM incubated for 48 hrs by sulforhodamine B assay relative to control; conditions: MDA-MB-468, 48 h, read-out: Activity
HCT-116 = experiment: Cytotoxicity against human HCT116 cells assessed as cell growth at 1 uM incubated for 48 hrs by sulforhodamine B assay relative to control; conditions: HCT-116, 48 h, read-out: Activity
M14 = experiment: Cytotoxicity against human M14 cells assessed as cell growth at 100 uM incubated for 48 hrs by sulforhodamine B assay relative to control; conditions: M14, 48 h, read-out: Activity
MCF7 [2] = experiment: Cytotoxicity against human MCF7 cells assessed as cell growth at 0.01 uM incubated for 48 hrs by sulforhodamine B assay relative to control; conditions: MCF7, 48 h, read-out: Activity
SF-295 = experiment: Cytotoxicity against human SF295 cells assessed as cell growth at 0.1 uM incubated for 48 hrs by sulforhodamine B assay relative to control; conditions: SF-295, 48 h, read-out: Activity
Malme-3M [3] = experiment: Cytotoxicity against human MALME-3M cells assessed as cell growth at 100 uM incubated for 48 hrs by sulforhodamine B assay relative to control; conditions: read-out: Activity
CAKI-1 = experiment: Cytotoxicity against human Caki1 cells assessed as cell growth at 1 uM incubated for 48 hrs by sulforhodamine B assay relative to control; conditions: CAKI-1, 48 h, read-out: Activity
HOP-92 = experiment: Cytotoxicity against human HOP92 cells assessed as cell growth at 100 uM incubated for 48 hrs by sulforhodamine B assay relative to control; conditions: HOP-92, 48 h, read-out: Activity
OVCAR-8 = experiment: Cytotoxicity against human OVCAR8 cells assessed as cell growth at 0.01 uM incubated for 48 hrs by sulforhodamine B assay relative to control; conditions: OVCAR-8, 48 h, read-out: Activity
NCI-H23 [4] = experiment: Cytotoxicity against human NCI-H23 cells assessed as cell growth at 10 uM incubated for 48 hrs by sulforhodamine B assay relative to control; conditions: NCI-H23, 48 h, read-out: Activity
SK-MEL-5 = experiment: Cytotoxicity against human SK-MEL-5 cells assessed as cell growth at 1 uM incubated for 48 hrs by sulforhodamine B assay relative to control; conditions: SK-MEL-5, 48 h, read-out: Activity
NCI-H23 [5] = experiment: Cytotoxicity against human NCI-H23 cells assessed as cell growth at 100 uM incubated for 48 hrs by sulforhodamine B assay relative to control; conditions: NCI-H23, 48 h, read-out: Activity
U-251 = experiment: Cytotoxicity against human U251 cells incubated for 48 hrs by sulforhodamine B assay; conditions: U-251, 48 h
NCI-H23 [6] = experiment: Cytotoxicity against human NCI-H23 cells assessed as cell growth at 1 uM incubated for 48 hrs by sulforhodamine B assay relative to control; conditions: NCI-H23, 48 h, read-out: Activity
MCF7 [7] = experiment: Cytotoxicity against human MCF7 cells incubated for 48 hrs by sulforhodamine B assay; conditions: MCF7, 48 h
HCC 2998 = experiment: Cytotoxicity against human HCC2998 cells incubated for 48 hrs by sulforhodamine B assay; conditions: HCC 2998, 48 h
NCI/ADR-RES = experiment: Cytotoxicity against human NCI/ADR-RES cells assessed as cell growth at 1 uM incubated for 48 hrs by sulforhodamine B assay relative to control; conditions: read-out: Activity
OVCAR-4 = experiment: Cytotoxicity against human OVCAR4 cells assessed as cell growth at 0.01 uM incubated for 48 hrs by sulforhodamine B assay relative to control; conditions: OVCAR-4, 48 h, read-out: Activity
SF-268 = experiment: Cytotoxicity against human SF268 cells incubated for 48 hrs by sulforhodamine B assay; conditions: SF-268, 48 h
COLO 205 = experiment: Cytotoxicity against human COLO205 cells assessed as cell growth at 0.1 uM incubated for 48 hrs by sulforhodamine B assay relative to control; conditions: COLO 205, 48 h, read-out: Activity
EKVX = experiment: Cytotoxicity against human EKVX cells assessed as cell growth at 1 uM incubated for 48 hrs by sulforhodamine B assay relative to control; conditions: read-out: Activity
HOP-62 = experiment: Cytotoxicity against human HOP62 cells assessed as cell growth at 0.01 uM incubated for 48 hrs by sulforhodamine B assay relative to control; conditions: HOP-62, 48 h, read-out: Activity
PC-3 = experiment: Cytotoxicity against human PC3 cells assessed as cell growth at 10 uM incubated for 48 hrs by sulforhodamine B assay relative to control; conditions: PC-3, 48 h, read-out: Activity
HCT-15 = experiment: Cytotoxicity against human HCT15 cells assessed as cell growth at 1 uM incubated for 48 hrs by sulforhodamine B assay relative to control; conditions: HCT-15, 48 h, read-out: Activity
NCI-H322M = experiment: Cytotoxicity against human NCI-H322M cells assessed as cell growth at 0.1 uM incubated for 48 hrs by sulforhodamine B assay relative to control; conditions: read-out: Activity
BT-549 = experiment: Cytotoxicity against human BT549 cells assessed as cell growth at 10 uM incubated for 48 hrs by sulforhodamine B assay relative to control; conditions: BT-549, 48 h, read-out: Activity
UO-31 = experiment: Cytotoxicity against human UO31 cells assessed as cell growth at 0.01 uM incubated for 48 hrs by sulforhodamine B assay relative to control; conditions: UO-31, 48 h, read-out: Activity
LOX IMVI = experiment: Cytotoxicity against human LOXIMVI cells assessed as cell growth at 1 uM incubated for 48 hrs by sulforhodamine B assay relative to control; conditions: read-out: Activity
KM12 = experiment: Cytotoxicity against human KM12 cells assessed as cell growth at 0.1 uM incubated for 48 hrs by sulforhodamine B assay relative to control; conditions: KM12, 48 h, read-out: Activity
A498 = experiment: Cytotoxicity against human A498 cells assessed as cell growth at 0.01 uM incubated for 48 hrs by sulforhodamine B assay relative to control; conditions: A498, 48 h, read-out: Activity
[8] = read-out: LC50 (the source's name)
[9] = read-out: pLC50 (the source's name) (converted)

**Q.** With COc1ccc(-c2nocc2-c2cc(OC)c(OC)c(OC)c2)cc1 as the compound, how does the growth at 100 µM (RPMI-8226) read?
**A.** -17%

**Q.** And the growth at 0.1 µM (Malme-3M [1])?
**A.** 55%

**Q.** What about the growth at 1 µM (MDA-MB-468) of the same compound?
**A.** 3%

**Q.** And the growth at 1 µM (HCT-116)?
**A.** 14%

**Q.** And the growth at 100 µM (M14)?
**A.** -5%

**Q.** And the growth at 0.01 µM (MCF7 [2])?
**A.** 86%

**Q.** What about the growth at 0.1 µM (SF-295) of the same compound?
**A.** 36%

**Q.** What about the growth at 100 µM (Malme-3M [3]) of the same compound?
**A.** -31%

**Q.** What about the growth at 1 µM (CAKI-1) of the same compound?
**A.** 47%

**Q.** And the growth at 100 µM (HOP-92)?
**A.** -21%

**Q.** What about the growth at 0.01 µM (OVCAR-8) of the same compound?
**A.** 103%

**Q.** What about the growth at 10 µM (NCI-H23 [4]) of the same compound?
**A.** 19%

**Q.** What about the growth at 1 µM (SK-MEL-5) of the same compound?
**A.** 29%

**Q.** And the growth at 100 µM (NCI-H23 [5])?
**A.** -3%

**Q.** And the GI50 (U-251; read-out: GI50)?
**A.** 0.0906 µM

**Q.** What about the CC50 (U-251; [8]) of the same compound?
**A.** > 100 µM

**Q.** And the TGI (U-251; read-out: TGI)?
**A.** 65.8 µM

**Q.** And the GI50 (U-251; read-out: pGI50 (converted))?
**A.** 0.0912 µM

**Q.** And the CC50 (U-251; [9])?
**A.** > 100 µM

**Q.** And the TGI (U-251; read-out: pTGI (converted))?
**A.** 66.1 µM

**Q.** What about the growth at 1 µM (NCI-H23 [6]) of the same compound?
**A.** 29%

**Q.** And the GI50 (MCF7 [7]; read-out: GI50)?
**A.** 0.0408 µM

**Q.** And the LC50 (MCF7 [7]; read-out: LC50)?
**A.** > 100 µM

**Q.** And the TGI (MCF7 [7]; read-out: TGI)?
**A.** > 100 µM

**Q.** And the GI50 (MCF7 [7]; read-out: pGI50 (converted))?
**A.** 0.0407 µM

**Q.** What about the LC50 (MCF7 [7]; read-out: pLC50 (converted)) of the same compound?
**A.** > 100 µM

**Q.** And the TGI (MCF7 [7]; read-out: pTGI)?
**A.** > 100 µM

**Q.** And the GI50 (HCC 2998; read-out: GI50)?
**A.** 0.347 µM

**Q.** And the CC50 (HCC 2998; [8])?
**A.** > 100 µM

**Q.** And the TGI (HCC 2998; read-out: TGI)?
**A.** 22.2 µM

**Q.** What about the GI50 (HCC 2998; read-out: pGI50 (converted)) of the same compound?
**A.** 0.347 µM

**Q.** And the CC50 (HCC 2998; [9])?
**A.** > 100 µM

**Q.** And the TGI (HCC 2998; read-out: pTGI (converted))?
**A.** 22.4 µM

**Q.** And the growth at 1 µM (NCI/ADR-RES)?
**A.** 9%

**Q.** What about the growth at 0.01 µM (OVCAR-4) of the same compound?
**A.** 86%

**Q.** What about the GI50 (SF-268; read-out: GI50) of the same compound?
**A.** 0.549 µM

**Q.** And the LC50 (SF-268; read-out: LC50)?
**A.** > 100 µM

**Q.** What about the TGI (SF-268; read-out: TGI) of the same compound?
**A.** > 100 µM

**Q.** And the GI50 (SF-268; read-out: pGI50 (converted))?
**A.** 0.55 µM

**Q.** And the LC50 (SF-268; read-out: pLC50 (converted))?
**A.** > 100 µM

**Q.** What about the TGI (SF-268; read-out: pTGI) of the same compound?
**A.** > 100 µM

**Q.** And the growth at 0.1 µM (COLO 205)?
**A.** 37%

**Q.** And the growth at 1 µM (EKVX)?
**A.** 37%

**Q.** What about the growth at 0.01 µM (HOP-62) of the same compound?
**A.** 85%

**Q.** And the growth at 10 µM (PC-3)?
**A.** 22%

**Q.** What about the growth at 1 µM (HCT-15) of the same compound?
**A.** 23%

**Q.** And the growth at 0.1 µM (NCI-H322M)?
**A.** 76%

**Q.** What about the growth at 10 µM (BT-549) of the same compound?
**A.** 9%

**Q.** What about the growth at 0.01 µM (UO-31) of the same compound?
**A.** 90%

**Q.** And the growth at 1 µM (LOX IMVI)?
**A.** 43%

**Q.** What about the growth at 0.1 µM (KM12) of the same compound?
**A.** 26%

**Q.** And the growth at 0.01 µM (A498)?
**A.** 73%

— ChEMBL document CHEMBL4145521, “Regioselective synthesis of 3,4-diaryl-5-unsubstituted isoxazoles, analogues of natural cytostatic combretastatin A4” (Eur J Med Chem, 2018)
